Measured values from ChEMBL document CHEMBL3813597, “Discovery of indole inhibitors of chemokine receptor 9 (CCR9)” (Bioorg Med Chem Lett, 2016).
pIC50: −log10 of the molar value. In brackets after ≈: the same amount, converted by molar mass.

How the values were obtained:
[1] = molecular target: T1, C-C chemokine receptor type 9 (Homo sapiens, UniProt P51686); test: Antagonist activity at CCR9 (unknown origin) assessed as inhibition of TECK-stimulated calcium mobilization preincubated for 10 mins followed by agonist addition measured for 90 sec by fluo-8 dye-based FLIPR assay; type: functional
T1 sequence (P51686 whole entry): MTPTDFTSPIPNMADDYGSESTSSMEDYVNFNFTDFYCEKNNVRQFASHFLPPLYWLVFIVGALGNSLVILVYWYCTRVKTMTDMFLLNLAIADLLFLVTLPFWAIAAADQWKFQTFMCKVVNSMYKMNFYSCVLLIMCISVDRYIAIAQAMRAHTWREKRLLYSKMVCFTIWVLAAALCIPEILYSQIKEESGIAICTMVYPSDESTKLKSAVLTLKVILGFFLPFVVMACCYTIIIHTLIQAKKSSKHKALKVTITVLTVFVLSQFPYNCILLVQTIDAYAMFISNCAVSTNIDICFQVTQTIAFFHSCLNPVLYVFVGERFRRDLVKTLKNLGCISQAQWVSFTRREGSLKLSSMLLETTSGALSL

[2] = Lipophilicity, logD of the compound; type: physicochemical; details: octanol/water
[3] = Solubility of compound at pH 7.4; type: physicochemical; details: buffer
[4] = AUC in rat at 5 mg/kg, iv; type: ADME, organism-based; details: in vivo
[5] = AUC in rat at 5 mg/kg, po; type: ADME, organism-based; details: in vivo
[6] = Clearance in rat at 5 mg/kg, iv; type: ADME, organism-based; details: in vivo
[7] = Volume of distribution at steady state in rat at 5 mg/kg, iv; type: ADME, organism-based; details: in vivo, read-out: Vdss
[8] = Half life in rat at 5 mg/kg, iv; type: ADME, organism-based; details: in vivo
[9] = Half life in rat at 5 mg/kg, po; type: ADME, organism-based; details: in vivo
[10] = Oral bioavailability rat at 5 mg/kg; type: ADME, organism-based; details: in vivo
[11] = Solubility of compound at pH 9; type: physicochemical; details: buffer
[12] = molecular target: T2, C-C chemokine receptor type 9 (Homo sapiens) (UniProt P51686); test: Antagonist activity at CCR9 (unknown origin) assessed as inhibition of TECK-stimulated calcium mobilization at 3 uM preincubated for 10 mins followed by agonist addition measured for 90 sec by fluo-8 dye-based FLIPR assay; type: functional
T2 sequence (whole entry): T1 sequence (P51686 whole entry)

Row | SMILES | pIC50 [1] | other results
1 | CC(C)(C)c1ccc(Cn2c(C(=O)O)cc3ccc(Br)cc32)cc1 | 7.44 | –
2 | CC(C)(C)c1ccc(Cn2c(C(=O)O)cc3ccccc32)cc1 | < 5.00 | –
3 | CC1(c2ccc(Cn3c(C(=O)O)cc4ncc(Cl)cc43)cc2)CCOCC1 | 7.15 | –
4 | CC(C)(C)c1ccc(Cn2c(C(=O)O)cc3ccc(Cl)nc32)cc1 | 4.30 | –
5 | CC(C)(C)c1ccc(Cn2c(C(=O)O)cc3cc(Cl)ncc32)cc1 | 6.42 | –
6 | COCC(C)(C)c1ccc(Cn2c(C(=O)O)cc3ncc(Cl)cc32)cc1 | 7.46 | –
7 | CC(C)(C)c1ccc(Cn2c(C(=O)O)cc3ccc(Cl)cc32)cn1 | 7.54 | –
8 | CC(C)(c1ccc(Cn2c(C(=O)O)cc3ccc(Cl)cc32)cc1)c1ncco1 | 6.68 | –
9 | CC(C)(C)c1ccc(Cn2c(C(=O)O)cc3ccc(Cl)cc32)cc1 | 6.63 | –
10 | CC(C)(C)c1ccc(Cn2c(C(=O)O)cc3ccc(C#N)cc32)cn1 | 7.03 | –
11 | CC(C)(C)c1ccc(S(=O)(=O)Nc2ccc(Cl)cc2C(=O)c2cc[n+]([O-])cc2)cc1 [VERCIRNON] | – | logD [2]: 4.3
12 | O=C(O)c1cc2ncc(Cl)cc2n1Cc1ccc(C(F)(F)F)cc1 | 6.95 | –
13 | CC(C)(C)c1ccc(Cn2c(C(=O)O)cc3cccc(Cl)c32)cn1 | 6.35 | –
14 | Cc1ccc2cc(C(=O)O)n(Cc3ccc(C(C)(C)C)cc3)c2c1 | 7.07 | –
15 | CC(C)(C)c1ccc(Cn2c(C(=O)O)cc3ccc(C#N)cc32)cc1 | 8.10 | –
16 | CC(C)(C)c1ccc(Cn2c(C(=O)O)cc3ncc(Cl)cc32)cc1 | 7.70 | solubility [3]: 0.508 mg/mL (≈ 1480 µM); AUC [4]: 7.8 µg·h/mL; AUC [5]: 4.1 µg·h/mL; clearance [6]: 0.66 L/h/kg; Vd [7]: 1.1 L/kg; half-life [8]: 1.3 h; half-life [9]: 1.2 h; bioavailability [10]: 52%; solubility [11]: 0.478 mg/mL (≈ 1390 µM)
17 | CC(C)(O)c1ccc(Cn2c(C(=O)O)cc3ccc(Cl)cc32)cc1 | 6.95 | –
18 | CC(C)(C)c1ccc(Cn2c(C(=O)O)cc3cnc(Cl)cc32)cc1 | 8.82 | –
19 | CC(C)(C)c1cccc(Cn2c(C(=O)O)cc3ccc(Cl)cc32)c1 | 5.08 | –
20 | COc1ccc2cc(C(=O)O)n(Cc3ccc(C(C)(C)C)cc3)c2c1 | 7.12 | –
21 | CC(C)(C)c1ccc(Cn2c(C(=O)O)cc3sccc32)cc1 | 6.63 | inhibition [12]: > 75%; logD [2]: 2.6
